# Reference: patent publication USRE36736E, “Substituted pyrroles” (Hoffman-La Roche Inc., priority 1998, dated 2000)
# Biological target: protein kinase C
# Experiment: inhibition of protein kinase C in vitro (protein kinase-induced incorporation of 32P from [γ-32P]ATP into histone)
# Type: biochemical
# Conditions: histone substrate, read-out: IC50: concentration which reduces by 50% the protein kinase-induced incorporation of ^32 P from [γ-^32 P]ATP into histone
# Text: The IC50 figures in the following Table, represent that concentration of test compound which reduces by 50% the protein kinase-induced incorporation of ^32 P from [γ-^32 P]ATP into histone.
row,IC50 [µM],SMILES
1,0.5,"Cn1cc(C2=C(c3cn(CCC(N)=O)c4ccccc34)C(=O)NC2=O)c2ccccc21 [3-[1-(2-carbamoylethyl)-3-indolyl]-4-(1-methyl-3-indolyl)-1H-pyrrole-2,5-dione]"
2,0.01,"Cn1cc(C2=C(c3cn(CCCSC(=N)N)c4ccccc34)C(=O)NC2=O)c2ccccc21 [3-[1-[3-(amidinothio)propyl]-3-indolyl]-4-(1-methyl-3-indolyl)-1H-pyrrole-2,5-dione]"

row,SMILES,IC50 [µM]
1,"Cn1cc(C2=C(c3cn(CCCN=C=S)c4ccccc34)C(=O)NC2=O)c2ccccc21 [3-[1-(3-isothiocyanatopropyl)-3-indolyl]-4-(1-methyl-3-indolyl)-1H-pyrrole-2,5-dione]",0.008
